The assay concerns the target T1, thrombin receptor (Homo sapiens, UniProt P25116).
T1 construct: endogenous in cells; host or cells: washed platelets from fresh blood
T1 sequence (P25116 22-425): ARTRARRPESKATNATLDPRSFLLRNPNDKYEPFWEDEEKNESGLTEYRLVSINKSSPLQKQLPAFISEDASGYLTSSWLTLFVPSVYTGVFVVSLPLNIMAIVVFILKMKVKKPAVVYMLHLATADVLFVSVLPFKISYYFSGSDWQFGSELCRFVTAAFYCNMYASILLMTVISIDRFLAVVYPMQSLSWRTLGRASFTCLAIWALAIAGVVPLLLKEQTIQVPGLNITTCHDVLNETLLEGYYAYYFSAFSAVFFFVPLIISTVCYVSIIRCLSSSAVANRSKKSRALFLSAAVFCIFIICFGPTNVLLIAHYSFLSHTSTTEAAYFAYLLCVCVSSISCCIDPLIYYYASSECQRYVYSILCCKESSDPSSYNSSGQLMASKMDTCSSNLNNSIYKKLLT
Briefly: flow cytometry of thrombin receptor epitopes (SPAN12, ATAP138) on α-thrombin activated platelets. It is filed as cell-based. Particulars: peptide 1 mM, α-thrombin 1 nM. The procedure:
Flow cytometry studies were performed to determine whether BK analogs prevent α-thrombin from eliminating an epitope on the thrombin receptor which is lost following α-thrombin cleavage- of the receptor. SPAN12 is an antibody to the thrombin receptor on platelets, which is specific for such an epitope. Studies were also performed to determine the effect of BK analogs on an epitope recognized by monoclonal antibody ATAP 138. The antibody is directed to an epitope on the thrombin receptor which is preserved after α-thrombin cleaves the receptor (FIGS. 7A-7D).
Monoclonal antibody SPAN12 was reared to the 12 amino acids, Asn-Ala-Thr-Leu-Asp-Pro-Arg-Ser-Phe-Leu-Leu-Arg (SEQ ID NO:2), that bridge the α-thrombin cleavage site on the thrombin receptor by the methods of Molinot et al., J. Biol. Chem. 270:ln Press, 1995. […]
Mouse IgG and an antibody to the epitope CD62 were used as controls. […] The fluorescence of bound FITC-anti-IgG to platelets was monitored on an Epics-C flow cytometer (Coulter Electronics, Hialeah, Fla.). Light scatter and fluorescence channels were set at logarithmic gain. […] Green fluorescence was observed through a 525 nm band pass filter. The relative fluorescence intensity of at least 15,000 platelets was analyzed in each sample. […]

Ends that are not written are not given here.

RPPGFSPFR [BK, bradykinin]: the “loss of SPAN12 epitope of thrombin receptor on α-thrombin activated platelets” value is recorded as “prevents the loss of the epitope”.

These data come from patent US6143719A, “Bradykinin analogs as selective thrombin inhibitors” (The Regents of the University of Michigan, priority 1996, dated 2000).
